Assay results: US20140350300A1, “ALISKIREN HEMIFUMARATE, CRYSTAL FORM AND AMORPHOUS SOLID” (DJADA PHARMACEUTICAL SA, priority 2011, published 2014)

Columns and labels:
[1] = Compressibility test on tablets; format: physicochemical
Description: A set of tablets was prepared using different compression forces. A compressibility test was carried out on these.

[2] = Stability test (exposure to humidity, XRPD); format: physicochemical; conditions: 25° C.
Description: Stability tests were carried out on Aliskiren hemifumarate, amorphous solid of this invention and Aliskiren hemifumarate, amorphous solid obtained as described in WO2008/061622, maintaining the samples at 25° C., 75% RH. […] The same samples were exposed to 25° C., 60% RH.

Compound	Rupture Strength ([1]; tablet #1, compression strength 22.27 kN) [N]	Rupture Strength ([1]; tablet #2, compression strength 23.82 kN) [N]	Rupture Strength ([1]; tablet #3, compression strength 24.15 kN) [N]	Rupture Strength ([1]; tablet #4, compression strength 6.80 kN) [N]	Rupture Strength ([1]; tablet #5, compression strength 7.95 kN) [N]	Rupture Strength ([1]; tablet #6, compression strength 10.10 kN) [N]	Rupture Strength ([1]; tablet #7, compression strength 11.55 kN) [N]	Rupture Strength ([1]; tablet #8, compression strength 7.88 kN) [N]	Rupture Strength ([1]; tablet #9, compression strength 10.15 kN) [N]	Rupture Strength ([1]; tablet #10, compression strength 13.18 kN) [N]	Rupture Strength ([1]; tablet #11, compression strength 15.60 kN) [N]	Rupture Strength ([1]; tablet #12, compression strength 14.12 kN) [N]	Typical nature of the diffractogram (XRPD pattern) after exposure ([2]; 60% RH, 5 days, curve A basal vs curve B, FIG. 15)	Change of physical form of the sample ([2]; 75% RH, after 2 hours)	Rupture strength compared with tablets of amorphous solid obtained as described in WO2008/061622 ([1]; comparison of Tables 7 and 8)	Rupture Strength ([1]; tablet #1, compression strength 11.83 kN) [N]	Rupture Strength ([1]; tablet #2, compression strength 5.83 kN) [N]	Rupture Strength ([1]; tablet #3, compression strength 16.45 kN) [N]	Rupture Strength ([1]; tablet #4, compression strength 10.85 kN) [N]	Rupture Strength ([1]; tablet #5, compression strength 19.43 kN) [N]
COCCCOc1cc(C[C@@H](C[C@H](N)[C@@H](O)C[C@H](C(=O)NCC(C)(C)C(N)=O)C(C)C)C(C)C)ccc1OC	1.5	2	1.5	2	2	1.5	2.2	2.5	2	2	2	2								
COCCCOc1cc(C[C@@H](C[C@H](N)[C@@H](O)C[C@H](C(=O)NCC(C)(C)C(N)=O)C(C)C)C(C)C)ccc1OC [(2S,4S,5S,7S)-5-amino-N-(3-amino-2,2-dimethyl-3-oxypropyl)-4-hydroxy-7-[[4-methoxy-3-(3-methoxypropoxy)pheny]methyl]-8-methyl-2-propan-2 ilnonanamide]													lost	changed from solid to viscous liquid form	higher	4.5	4	2	4	3.5
